The conditions of data set [1]: background statement; cited from earlier work.
The subject of data set [2] is collagen antibody-induced arthritis (CAIA). Nature of the data set: Collagen antibody-induced arthritis (CAIA) mouse model. It is filed as in vivo, female BALB/c mice. As to the method:
Oral gavage of 3′SL (20 mg thrice daily, beginning at the time of LPS trigger) reduces baseline-corrected ankle swelling (A) and clinical pathology score 28 (B) over the course of the study. […] (*p<0.05, **p<0.01, ***p<0.001).
Rheumatoid Arthritis In vivo Experimental Design. Macrophages and the pro-inflammatory cytokines IL-6 and IL-1β are known to perform a major role in the development and progression of joint destruction in animal models and patients with RA. […] Next, it was asked whether or not the in vitro results translate to an in vivo model. 3′SL efficacy in a collagen antibody-induced arthritis (CAIA) model was tested in mice. In the CAIA model, arthritis is induced by systemic administration of a cocktail of monoclonal antibodies that target various regions of collagen type II, which is one of the major constituents of articular cartilage matrix proteins, followed by the administration of endotoxin (LPS) on day 3. The high uptake rate in the CAIA model and the capacity to synchronize the development of arthritis from the time of antibody injection, makes this a relatively straightforward model that is used to address questions of pathogenic mechanisms and to screen candidate therapeutic agents.
8-week old female BALB/c mice were injected with 1.5 mg of Arthrogen-CIA monoclonal antibody cocktail (Chondrex, Inc.). Three days later, the mice were injected with 25 μg of LPS. Beginning with the time of LPS administration and followed for the next 11 consecutive days, mice were orally gavaged thrice daily with either 3′SL (20 mg in saline) or saline alone as control. With the tester blinded to the study groups, arthritis in each limb was determined once per day. […] By adding together, the scores of all four limbs, the maximum score per mouse is 28. In addition, a caliper was placed across the ankle joint at the widest point to measure ankle thickness in both hind limbs daily. 14 days after antibody cocktail administration, mice were euthanized and hind paws collected and processed for histology. H&E—as well as Toluidine blue-stained sections were scored from 0 to 4 for inflammation, bone erosion and cartilage depletion based on a previously validated scoring system.

In data set [3] the test system is human THP-1 monocytic cell line. Nature of the data set: Pro-inflammatory cytokine expression in human THP-1 monocytic cell line. The class given is cell-based. The source says:
(§1) Accordingly, the results with 3′SL translate to primary cells as well as to human macrophages.

Data set [4] deals with primary mouse cells (bone marrow derived macrophages). The data set can be described thus: Pro-inflammatory cytokine expression in primary mouse bone marrow derived macrophages. The class given is cell-based.
From the text: as §1

Data set [5] deals with IL-6 and IL-1β mRNA expression in LPS-activated RAW 264.7 cells. The data set can be described thus: Pro-inflammatory cytokine mRNA expression (RT-PCR) in LPS-stimulated RAW 264.7 macrophages. It is filed as cell-based, murine. As to the method:
RAW246.7 cells were exposed to LPS either alone or in combination with either pooled human milk oligosaccharides (HMOs), or 3′-sialyllactose (3′SL) or 2′-fucosyllactose (2′FL). After 6 hours, IL-6 (A) and IL-1β (B) mRNA levels were measured by RT-PCR and are plotted as mean±standard deviation (n=8) relative the respective mRNA levels in cells that were exposed to LPS alone (**p<0.01; ***p<0.001). HMOs are a group of more than 150 different structurally distinct oligosaccharides and their composition follows a basic structural blueprint (C), containing five monosaccharide building blocks: glucose (dark gray circle), galactose (light gray circle), N-acetylglucosamine (dark gray square), fucose (gray triangle) and sialic acid (gray diamond). 3′SL contains lactose with sialic acid at the terminal end; 2′FL contains lactose with fucose at the terminal end.
Oligosaccharides Reduce Pro-Inflammatory Cytokine mRNA Expression in Stimulated Macrophages. HMOs were first isolated and purified from pooled human donor milk (pHMO) by using polymixin B affinity chromatography to remove any lipopolysaccharide (LPS) contamination. RAW 264.7 cells, a murine macrophage cell line, were then incubated with LPS (10 ng/mL) and pHMO (500 ηg/mL) for 6 hours. RT-PCR was used to measure cytokine mRNA expression.
A multi-dimensional chromatography approach was used that separates pHMO first by charge and then by size. […] To exclude that the observed effect was due to impurities or contaminations from the isolation process, the results were confirmed with synthetized and commercially available 3′SL. […] Other oligosaccharides like 2′-fucosyllactose (2′FL), where the terminal monosaccharide is fucose instead of sialic acid (see FIG. 1C), had no effect, emphasizing that the anti-inflammatory effect of 3′SL in macrophages is specific to the structure of 3′SL.

[6] abbreviates: 20 mg in saline, oral gavage thrice daily from LPS administration, vs saline.
[7] abbreviates: hind paws, day 14, scored 0 to 4, 20 mg oral gavage thrice daily.
The mark [8] stands for this setting: RAW 264.7 cells, LPS 10 ng/mL, 6 hours, compared to LPS alone.

The structures appear in SMILES notation.

Turning to `CC(=O)N[C@H]1[C@H](O[C@H]2[C@@H](O)[C@@H](CO)O[C@@H](O[C@H]3[C@H](O)[C@@H](O)C(O)O[C@@H]3CO)[C@@H]2O)O[C@H](CO)[C@@H](O[C@@H]2O[C@H](CO)[C@H](O)[C@H](O)[C@H]2O)[C@@H]1O` (mixture of isomers) [LNnT, lacto-N-(neo)tetraose], in data set [1], the “digestion in the stomach and absorption” value was “remain undigested in the stomach and are absorbed intact in the lower gastrointestinal tract”; the tolerability entry is recorded as “well tolerated”.

For `CC(=O)N[C@H]1[C@H]([C@H](O)[C@H](O)CO)O[C@@](O[C@H]2[C@@H](O)[C@@H](CO)O[C@@H](O[C@H]3[C@H](O)[C@@H](O)C(O)O[C@@H]3CO)[C@@H]2O)(C(=O)O)C[C@@H]1O` (stereo partly shown) [3′SL, 3′-sialyllactose], in data set [2] (setting [6]), the “Baseline-corrected ankle thickness (paw swelling)” value is listed as “significantly reduced” and the “clinical index score 28” value is on record as “significantly reduced”. Besides, the adverse effects result in data set [2] (14-day study period, 20 mg oral gavage thrice daily) was “No adverse effects”. For the same compound, in data set [2] (setting [7]), the “histology score for cartilage damage” value was “significantly lower”, the “histology score for erosion” value is recorded as “significantly lower” and the “histology score for inflammation” value is recorded as “significantly lower”. Also, in data set [3], the pro-inflammatory cytokine expression entry is listed as “reduced”. In data set [4], the pro-inflammatory cytokine expression entry is given as “reduced”. Moreover, the “IC50 for reducing IL-6 and IL-1β mRNA expression (dose-range finding studies)” value in data set [5] (LPS-stimulated macrophages) is recorded as “around 15 μg/mL”. In data set [5] (setting [8]), the “IL-1β mRNA level” value is recorded as “most effective” and the “IL-6 mRNA level” value is given as “most effective”.

Source of the values: patent US20230181609A1, “IMMUNOMODULATORY OLIGOSACCHARIDES” (The Regents of the University of California, priority 2017, published 2023).
